Data as given in PubChem BioAssay AID330 (DTP/NCI, 2004).
Values joined by “and” are separate entries in the source; they are usually repeats but may differ in a detail not shown here. Equal entries are not always repeated. Inconclusive results and toxic doses are left out. How the source made its calls: active means survival T/C of 150% or more; inactive means T/C below 125% in these data.

System: P388 leukemia ip, CD2F1 mice, survival T/C
Test: NCI In Vivo Anticancer Drug Screen. Data for tumor model P388 Leukemia (intraperitoneal) in CD2F1 (CDF1) mice
Conditions: endpoint: median survival time, higher = longer survival
Procedure, shortened: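 Mice carrying the transplanted tumor received test compound or vehicle. Survival was recorded in each group, and the value is the treated-group measurement divided by that of the vehicle-treated control group.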

[1] = dose: 100.0 mg/kg/injection, schedule: Q04DX003 (ip), vehicle: Klucel (hydroxypropylcellulose) (HPC)
[2] = dose: 200.0 mg/kg/injection, schedule: Q04DX003 (ip), vehicle: Klucel (hydroxypropylcellulose) (HPC)
[3] = dose: 400.0 mg/kg/injection, schedule: Q04DX003 (ip), vehicle: Klucel (hydroxypropylcellulose) (HPC)
[4] = dose: 50.0 mg/kg/injection, schedule: Q01DX005 (ip), vehicle: saline with Tween-80
[5] = dose: 100.0 mg/kg/injection, schedule: Q01DX005 (ip), vehicle: saline with Tween-80
[6] = dose: 200.0 mg/kg/injection, schedule: Q01DX005 (ip), vehicle: saline with Tween-80
[7] = dose: 12.5 mg/kg/injection, schedule: Q01DX005 (ip), vehicle: Klucel (hydroxypropylcellulose) (HPC)
[8] = dose: 25.0 mg/kg/injection, schedule: Q01DX005 (ip), vehicle: Klucel (hydroxypropylcellulose) (HPC)
[9] = dose: 50.0 mg/kg/injection, schedule: Q01DX005 (ip), vehicle: Klucel (hydroxypropylcellulose) (HPC)
[10] = dose: 60.0 mg/kg/injection, schedule: Q01DX005 (ip), vehicle: saline
[11] = dose: 120.0 mg/kg/injection, schedule: Q01DX005 (ip), vehicle: saline
[12] = dose: 6.25 mg/kg/injection, schedule: Q01DX009 (ip), vehicle: saline with Tween-80
[13] = dose: 12.5 mg/kg/injection, schedule: Q01DX009 (ip), vehicle: saline with Tween-80
[14] = dose: 25.0 mg/kg/injection, schedule: Q01DX009 (ip), vehicle: saline with Tween-80
[15] = dose: 50.0 mg/kg/injection, schedule: Q01DX009 (ip), vehicle: saline with Tween-80
[16] = dose: 100.0 mg/kg/injection, schedule: Q01DX009 (ip), vehicle: saline with Tween-80
[17] = dose: 50.0 mg/kg/injection, schedule: Q01DX009 (ip), vehicle: Klucel (hydroxypropylcellulose) (HPC)
[18] = dose: 200.0 mg/kg/injection, schedule: Q01DX009 (ip), vehicle: saline
[19] = dose: 200.0 mg/kg/injection, schedule: Q01DX009 (ip), vehicle: saline with Tween-80

Measured: T/C

Cc1ccc(NC(=O)C(C)C)cc1
inactive: [1] 100 % of control | [2] 101 % of control | [3] 109 % of control

CC(C)C(NC(=O)C(CCCCN)N(C(=O)OCc1ccccc1)C(=O)OCc1ccccc1)C(=O)O (stereo not drawn)
inactive: [4] 100 % of control | [5] 93 % of control | [6] 92 % of control

COc1ccc(/C=N/OC(=S)NC2CCCCC2)cc1OC
inactive: [4] 102 % of control | [5] 94 % of control | [6] 93 % of control

CCOC(=O)CNC(C)c1ccc(F)cc1 (stereo not drawn)
inactive: dose: 50.0 mg/kg/injection, schedule: Q01DX005 (ip), vehicle: saline 100 % of control | dose: 100.0 mg/kg/injection, schedule: Q01DX005 (ip), vehicle: saline 105 % of control | dose: 200.0 mg/kg/injection, schedule: Q01DX005 (ip), vehicle: saline 103 % of control

O=C1C2=C(Nc3ccccc3N2)OC1c1ccco1 (stereo not drawn)
inactive: [7] 103 % of control | [8] 100 % of control | [9] 102 % of control and 89 % of control

COc1ccc2c(ccc[n+]2C)c1
inactive: dose: 5.0 mg/kg/injection, schedule: Q01DX009 (ip), vehicle: saline with Tween-80 100 % of control | dose: 10.0 mg/kg/injection, schedule: Q01DX009 (ip), vehicle: saline with Tween-80 110 % of control | dose: 20.0 mg/kg/injection, schedule: Q01DX009 (ip), vehicle: saline with Tween-80 110 % of control

Cc1ocnc1Cc1ccc(O)c(O)c1
inactive: dose: 100.0 mg/kg/injection, schedule: Q01DX001 (ip), vehicle: saline 101 % of control | dose: 200.0 mg/kg/injection, schedule: Q01DX001 (ip), vehicle: saline 96 % of control | dose: 400.0 mg/kg/injection, schedule: Q01DX001 (ip), vehicle: saline 98 % of control

CN(C)c1ccc2nc3ccc(=N)cc-3sc2c1
inactive: [10] 114 % of control | [11] 118 % of control

CCCCC(=O)CCCCCCCCC(O)CC(=O)OCC (stereo not drawn)
inactive: [1] 100 % of control | [2] 103 % of control | [3] 102 % of control

COCCOCCOCCOCCOCCOCCOCCOC(=O)CCn1cc(F)c(=O)[nH]c1=O
inactive: dose: 62.5 mg/kg/injection, schedule: Q04DX002 (ip), vehicle: saline 99 % of control | dose: 125.0 mg/kg/injection, schedule: Q04DX002 (ip), vehicle: saline 108 % of control | dose: 250.0 mg/kg/injection, schedule: Q04DX002 (ip), vehicle: saline 101 % of control | dose: 500.0 mg/kg/injection, schedule: Q04DX002 (ip), vehicle: saline 109 % of control

Oc1ccc(C2(c3ccc(O)c(Cl)c3)CC3CCC2C3)cc1Cl (stereo not drawn)
inactive: dose: 0.79 mg/kg/injection, schedule: Q01DX009 (ip), vehicle: saline with Tween-80 103 % of control and 111 % of control | dose: 1.56 mg/kg/injection, schedule: Q01DX009 (ip), vehicle: saline with Tween-80 103 % of control and 116 % of control | dose: 3.12 mg/kg/injection, schedule: Q01DX009 (ip), vehicle: saline with Tween-80 103 % of control and 105 % of control | [12] 111 % of control and 94 % of control | [13] 97 % of control | [14] 98 % of control

CCOC(=O)C1(Br)CCCCC1Br (stereo not drawn)
inactive: [14] 108 % of control and 111 % of control | [15] 115 % of control and 118 % of control | [16] 113 % of control and 118 % of control and 119 % of control

C=CC(=O)NC1(c2ccccc2)CN2CCC1CC2 (stereo not drawn)
inactive: [17] 96 % of control

O=C(c1ccccc1)C(NCc1ccccc1)(Nc1ccccn1)c1ccccc1 (stereo not drawn)
inactive: dose: 15.0 mg/kg/injection, schedule: Q01DX005 (ip), vehicle: Klucel (hydroxypropylcellulose) (HPC) 102 % of control | dose: 30.0 mg/kg/injection, schedule: Q01DX005 (ip), vehicle: Klucel (hydroxypropylcellulose) (HPC) 100 % of control | dose: 60.0 mg/kg/injection, schedule: Q01DX005 (ip), vehicle: Klucel (hydroxypropylcellulose) (HPC) 100 % of control and 88 % of control | dose: 240.0 mg/kg/injection, schedule: Q01DX005 (ip), vehicle: Klucel (hydroxypropylcellulose) (HPC) 89 % of control

CNC(=O)Nc1nc2ccccc2[nH]1
active: dose: 640.0 mg/kg/injection, schedule: Q04DX003 (ip), vehicle: other 154 % of control
inactive: dose: 20.0 mg/kg/injection, schedule: Q04DX003 (ip), vehicle: other 100 % of control | dose: 20.0 mg/kg/injection, schedule: Q04DX003 (oral), vehicle: other 100 % of control | dose: 40.0 mg/kg/injection, schedule: Q04DX003 (ip), vehicle: other 95 % of control | dose: 40.0 mg/kg/injection, schedule: Q04DX003 (oral), vehicle: other 100 % of control | dose: 50.0 mg/kg/injection, schedule: Q04DX003 (ip), vehicle: Klucel (hydroxypropylcellulose) (HPC) 100 % of control (2×) and 109 % of control | dose: 80.0 mg/kg/injection, schedule: Q04DX003 (ip), vehicle: other 102 % of control | dose: 80.0 mg/kg/injection, schedule: Q04DX003 (oral), vehicle: other 100 % of control | [1] 105 % of control and 111 % of control and 116 % of control | dose: 160.0 mg/kg/injection, schedule: Q04DX003 (ip), vehicle: other 111 % of control | dose: 160.0 mg/kg/injection, schedule: Q04DX003 (oral), vehicle: other 104 % of control | [2] 112 % of control and 118 % of control | dose: 320.0 mg/kg/injection, schedule: Q04DX003 (ip), vehicle: other 119 % of control | dose: 320.0 mg/kg/injection, schedule: Q04DX003 (oral), vehicle: other 102 % of control | [3] 109 % of control and 121 % of control | dose: 640.0 mg/kg/injection, schedule: Q04DX003 (oral), vehicle: other 109 % of control

[Br][Sn]([Br])([CH2]CC[CH2][Sn]([Br])([Br])[c]1ccccc1)[c]1ccccc1
inactive: [7] 101 % of control | [8] 117 % of control | [9] 115 % of control and 117 % of control

O=S(=O)(NCCSSCCNS(=O)(=O)c1ccc(F)cc1)c1ccc(F)cc1
inactive: [17] 95 % of control | dose: 100.0 mg/kg/injection, schedule: Q01DX009 (ip), vehicle: Klucel (hydroxypropylcellulose) (HPC) 90 % of control | dose: 200.0 mg/kg/injection, schedule: Q01DX009 (ip), vehicle: Klucel (hydroxypropylcellulose) (HPC) 89 % of control

SCC(CS)=C(CS)CS
inactive: dose: 60.0 mg/kg/injection, schedule: Q01DX005 (ip), vehicle: saline with Tween-80 112 % of control | dose: 120.0 mg/kg/injection, schedule: Q01DX005 (ip), vehicle: saline with Tween-80 113 % of control | dose: 240.0 mg/kg/injection, schedule: Q01DX005 (ip), vehicle: saline with Tween-80 106 % of control

O=S(=O)(OC1CCC2CCC1O2)c1ccc(Br)cc1 (stereo not drawn)
inactive: dose: 50.0 mg/kg/injection, schedule: Q01DX009 (ip), vehicle: saline 86 % of control | dose: 100.0 mg/kg/injection, schedule: Q01DX009 (ip), vehicle: saline 100 % of control | [18] 100 % of control

COC1CCC(COS(=O)(=O)c2ccc(C)cc2)O1 (stereo not drawn)
inactive: [15] 105 % of control | [16] 100 % of control | [19] 103 % of control

COc1ccc2[nH]cc(CCN(C)C)c2c1
inactive: [13] 115 % of control | dose: 16.5 mg/kg/injection, schedule: Q01DX009 (ip), vehicle: saline with Tween-80 113 % of control | [14] 104 % of control | dose: 37.5 mg/kg/injection, schedule: Q01DX009 (ip), vehicle: saline with Tween-80 109 % of control | [15] 115 % of control

O=C1Nc2ccccc2C(O)(c2ccccc2)N1Cc1ccccc1 (stereo not drawn)
inactive: [12] 91 % of control | [13] 100 % of control | [14] 88 % of control | [18] 87 % of control

O=C1CSC(=S)N1Cc1ccncc1
inactive: [15] 97 % of control | [16] 98 % of control | [19] 101 % of control

COC(=O)CCc1c(C)nc(N(C)C)oc1=O
inactive: [10] 100 % of control | [11] 100 % of control | dose: 240.0 mg/kg/injection, schedule: Q01DX005 (ip), vehicle: saline 99 % of control

CCOC(=O)CN=NNc1ccc([N+](=O)[O-])cc1
inactive: dose: 100.0 mg/kg/injection, schedule: Q01DX001 (ip), vehicle: Klucel (hydroxypropylcellulose) (HPC) 106 % of control | dose: 200.0 mg/kg/injection, schedule: Q01DX001 (ip), vehicle: Klucel (hydroxypropylcellulose) (HPC) 109 % of control | dose: 400.0 mg/kg/injection, schedule: Q01DX001 (ip), vehicle: Klucel (hydroxypropylcellulose) (HPC) 109 % of control
